Experimental data taken from paper PMC13185115, “Photovermellogens: Minimalistic Pyridinium-Based Acylhydrazones with Photoswitchable Basicity for Operation in Aqueous Media” (The Journal of Organic Chemistry, 2026).

Experiments:
Assay type in all cases: physicochemical
[1] = Irradiation of the conjugate bases (E→Z attempt; Z→E at >495 nm); details: 26 µM, pH 13, irradiation at >495 nm, monitored at 429 nm
Excerpt: Having confirmed the photochemical behavior of the protonated forms, we next explored their light-responsiveness in the deprotonated state. […] To probe whether Z-P a–c could nonetheless be generated indirectly, we explored a consecutive photoisomerization–deprotonation sequence. Thus, E-P a–cH^+ was first irradiated at 254 nm and pH 6 to enrich the Z population, followed by immediate adjustment of the solution to pH 13. Under these conditions, transient spectroscopic features were observed, consistent with the kinetic trapping of the metastable Z-P a–c species. […] These spectroscopic observations enabled the estimation of virtual pK a values for the Z-enriched solutions (Table and Figures S163–168, SI1), which confirmed the reduced acidity of the NH group in the Z-isomers, presumably arising from intramolecular hydrogen-bond formation.
To gain further insight into the behavior of the metastable Z-bases, absorbance changes of the kinetically trapped state were monitored over time in the dark for the whole P a–c series.
7. Thermal Z-P a-c→E-P a-c isomerizations from the PSS […]
(§1) Figure S169. […] Right: Kinetics (monitored at 429 nm) of the isomerization of Z-P a to E-P a (26 µM) at room temperature. k = 7.2 × 10 –4 s–1.
(§2) Figure S170. […] Right: Kinetics (monitored at 429 nm) of the photoisomerization of Z-P a to E-P a (26 µM) upon irradiation at >495 nm. k = 2.5 × 10 –3 s–1. […]

[2] = Thermal Z-P to E-P isomerization of the kinetically trapped conjugate bases at pH 13; details: 26 µM, pH 13, room temperature, monitored at 429 nm
Excerpt: Having confirmed the photochemical behavior of the protonated forms, we next explored their light-responsiveness in the deprotonated state. […] To probe whether Z-P a–c could nonetheless be generated indirectly, we explored a consecutive photoisomerization–deprotonation sequence. Thus, E-P a–cH^+ was first irradiated at 254 nm and pH 6 to enrich the Z population, followed by immediate adjustment of the solution to pH 13. Under these conditions, transient spectroscopic features were observed, consistent with the kinetic trapping of the metastable Z-P a–c species. […]
To gain further insight into the behavior of the metastable Z-bases, absorbance changes of the kinetically trapped state were monitored over time in the dark for the whole P a–c series. […]
as §1, §2
is in blue. Right: Kinetics (monitored at 456 nm) of the isomerization of Z-P b to E-P b (15 µM) at room temperature. k = 8.9 × 10 –5 s–1. […]
is in blue. Right: Kinetics (monitored at 432 nm) of the isomerization of Z-P c to E-P c (16 µM) at room temperature. k = 8.4 × 10 –5 s–1.

[3] = Thermal Z-PH+ to E-PH+ back-isomerization kinetics; details: Arrhenius analysis, 47, 55 and 64 °C, from 254 nm photostationary state
Excerpt: Photoisomerization studies were subsequently carried out in acidic medium (pH = pK a – 2) in order to assess the photoresponse of the protonated species. Under these conditions, the anticipated photoisomerization of the thermally stable E-P a–dH^+ species was investigated by UV–vis absorption spectroscopy under irradiation at 254 nm. […] It is noteworthy that the irradiation wavelength can be extended to 365 nm, yielding virtually the same observations as for 254 nm irradiation (see footnotes of Table ). Irradiation also produced clear NMR spectral changes that support the occurrence of the E→Z isomerization. In essence, the signals Hf–h of the phenyl moiety were only slightly affected, whereas those of the pyridinium and acylhydrazone fragments shifted markedly, consistent with the formation of an intramolecular hydrogen bond in the Z-P a–cH^+ species. The reverse Z→E transformation of the protonated forms P a–cH^+ was also achieved upon irradiation at λ > 420 nm, giving lower quantum yields and less favorable PSDs (Figures S145–S147, S149–154, S1).
5.5. Z-P a-cH+→E-P a-cH+ thermal back-isomerization kinetics.
Figure S155. Absorption spectrum variation during 48h at room temperature from the PSS reached for P aH·Cl (7µM, pH 6, Red) state during 48h. E-isomer absorption spectrum in green.
Even though the kinetics has not been fully completed, it can be observed that it occurs much more slowly than photochemical processes.
To obtain an estimation of P aH·Cl Z→E thermal half-live at room temperature, the Z →E thermal reversion kinetics were monitored starting from the 254nm photostationary state at different temperatures (47, 55 and 64 °C). By tracking the absorbance changes at 420 nm, an Arrhenius analysis was performed, allowing the determination of the activation energy (EA) and the estimation of the thermal half-life at 25 °C.

| SMILES | k photoisomerization Z-P to E-P [1] | k thermal isomerization Z-P to E-P [2] | activation energy E A of thermal Z→E reversion [3] [kcal·mol^–1] |
| --- | --- | --- | --- |
| C[n+]1ccc([N-]/N=C\C(=O)c2ccccc2)cc1 [Z-P a] | 2.5 10^–3 s^–1 | 7.2 10^–4 s^–1 | – |
| C[n+]1ccc(N/N=C\C(=O)c2ccccc2)cc1 [Z-P aH^+] | – | – | 17.4 |
